Tests used:
L1210 = assay: Concentration inhibiting L1210 cell growth in culture; type: functional, cell-based; conditions: Mus musculus
[1] = Concentration inhibiting Glycinamide ribotide formyltransferase of Lactobacillus casei; parameters: species or system Lacticaseibacillus casei
Dihydrofolate reductase [2] = molecular target: T1, Dihydrofolate reductase (Mus musculus, UniProt P00375); assay: Concentration inhibiting Dihydrofolate reductase derived from L1210 cells; type: cell-based
T1 sequence (P00375 whole entry): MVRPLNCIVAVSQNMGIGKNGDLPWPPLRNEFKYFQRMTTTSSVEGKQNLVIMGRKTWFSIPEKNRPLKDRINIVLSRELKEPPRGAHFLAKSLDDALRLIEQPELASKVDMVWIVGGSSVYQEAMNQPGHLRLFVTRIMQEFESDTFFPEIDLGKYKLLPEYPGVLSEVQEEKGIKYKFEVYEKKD

Thymidylate synthase = molecular target: T2, Thymidylate synthase (Lactobacillus casei, UniProt P00469); assay: Concentration inhibiting thymidylate synthase enzyme of Lactobacillus casei; parameters: species or system Lacticaseibacillus casei
T2 sequence (P00469 whole entry): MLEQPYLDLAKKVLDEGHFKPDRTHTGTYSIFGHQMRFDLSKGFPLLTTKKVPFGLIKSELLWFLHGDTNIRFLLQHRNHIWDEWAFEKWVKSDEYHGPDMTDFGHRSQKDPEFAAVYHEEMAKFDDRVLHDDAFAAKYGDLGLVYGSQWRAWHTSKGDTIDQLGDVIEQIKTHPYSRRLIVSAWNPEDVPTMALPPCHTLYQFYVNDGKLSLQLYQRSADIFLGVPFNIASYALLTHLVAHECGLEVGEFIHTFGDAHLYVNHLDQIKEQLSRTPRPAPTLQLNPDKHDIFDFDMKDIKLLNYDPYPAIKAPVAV

Dihydrofolate reductase [3] = molecular target: T1, Dihydrofolate reductase; assay: Concentration inhibiting dihydrofolate reductase derived from L1210 cells; type: cell-based
[4] = molecular target: reduced folate carrier (Mus musculus); assay: Binding affinity towards Dihydrofolate reductase derived from L1210 cells using [3H]- MTX as the radioligand
Dihydrofolate reductase [5] = molecular target: T3, Dihydrofolate reductase (Homo sapiens, UniProt P00374); assay: Inhibitory activity towards dihydrofolate reductase derived from human manca leukemia cells
T3 sequence (P00374 whole entry): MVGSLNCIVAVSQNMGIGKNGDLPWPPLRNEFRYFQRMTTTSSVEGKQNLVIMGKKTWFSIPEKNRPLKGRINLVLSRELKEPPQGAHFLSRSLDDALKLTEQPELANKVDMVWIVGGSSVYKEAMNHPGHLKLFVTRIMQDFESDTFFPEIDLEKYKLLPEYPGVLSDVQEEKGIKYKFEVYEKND

SMILES | IC50 (L1210) [nM] | IC50 (Thymidylate synthase) [nM] | other results
CCC(Cc1ccc(C(=O)NC(CCC(=O)O)C(=O)O)cc1)c1cnc2nc(N)nc(N)c2n1 (configuration not stated) | 4.7 | > 100000 | IC50 [1]: > 50000 nM; Ki (Dihydrofolate reductase [2]): 0.0055 nM
CCC(Cc1cnc2nc(N)nc(N)c2n1)c1ccc(C(=O)N[C@@H](CCC(=O)O)C(=O)O)cc1 (some centres not stated) [EDATREXATE] | 0.65 | – | –
CN(Cc1cnc2nc(N)nc(N)c2n1)c1ccc(C(=O)N[C@@H](CCC(=O)O)C(=O)O)cc1 [METHOTREXATE] | 5 | – | –
Nc1nc(N)c2nc(CCc3ccc(C(=O)N[C@@H](CCC(=O)O)C(=O)O)cc3)cnc2n1 | 1.5 | – | Ki (Dihydrofolate reductase [3]): 0.0034 nM; Ki [4]: 1200 nM
CC(Cc1ccc(C(=O)NC(CCC(=O)O)C(=O)O)cc1)c1cnc2nc(N)nc(N)c2n1 (configuration not stated) | 0.24 | > 100000 | IC50 (Dihydrofolate reductase [5]): 40 nM

Source: ChEMBL document CHEMBL1124936, “Synthesis and antifolate properties of 9-alkyl-10-deazaminopterins” (J Med Chem, 1990)
